{"source": "patent US4885297A", "about": "“Thiazolopyridine compounds, processes for the preparation thereof and pharmaceutical composition comprising the same” (Fujisawa Pharmaceutical Co., Ltd., priority 1987, dated 1989)", "key": {"[1]": {"test_system": "Platelet aggregation (rat blood)", "test": "Platelet aggregation ex vivo (collagen-induced, after oral administration)", "format": "in vivo, Male Sprague-Dawley rats", "settings": "one hour after administration, collagen 5.0 μg/ml", "description": "Male Sprague-Dawley rats weighing about 250 g were used after overnight fasting. One hour after oral administration of test compound or vehicle of test compound (control), blood was collected into a tube containing 0.1 vol. of 3.8% sodium citrate. To the 0.45 ml of blood, 0.05 ml of collagen (final concentration 5.0 μg/ml) was added and then incubated for 5 min. at 37° C. under shaking.\nThe reaction was terminated by addition of 1 ml of 10 mM phosphate buffered saline (pH 7.4) containing 11.5 mM EDTA and 1% formalin. The reaction mixture was centrifuged at 70 xg for 5 min. and platelet count of upper phase was measured by Technicon Auto Analizer.\nPlatelet aggregation was calculated according to the following formula: [formula] A; Platelet count after addition of vehicle of collagen B; Platelet count after addition of collagen\nInhibition of the test compound was calculated according to the following formula; [formula] C; Platelet aggregation (%) of control D; Platelet aggregation (%) of Test compound"}, "[2]": {"test_system": "Platelet aggregation (rabbit platelet rich plasma)", "test": "Platelet aggregation in vitro (rabbit platelet rich plasma, ADP- or collagen-induced)", "format": "cell-based", "settings": "Oryctolagus cuniculus, rabbit PRP, pH 7.4, 37° C.", "description": "Platelet rich plasma (PRP) which contains 6-7×10^8 platelets/ml was prepared from rabbit blood. To the 200 μl of PRP, 5 μl of calcium chloride (1 mM) and 50 μl of 25 mM Tris-acetate solution (pH 7.4) containing 120 mM NaCl or test compound were added successively, and then stirred for 2 min. at 37° C. To the solution, 5 μl of adenosine diphosphate (ADP) (2.5 μM) or collagen (2.5 μg/ml) was added to an aggregation inducer. Aggregation was measured by using an aggregometer (NKK HEMATRACER 1). Activities of inhibitors (test compounds) were expressed as ID50 values i.e. Doses required to inhibit the platelet aggregation responses by 50%."}}, "note": "Like-named read-outs stand apart in the source and are kept apart here."}
{"smiles": "CN1CCN(C(=O)Cn2c(=O)sc3ncc(Cl)cc32)CC1", "note": "[Example 2, 6-chloro-2-oxo-1-[(4-methyl-1-piperazinyl)carbonylmethyl]-1,2-dihydrothiazolo[5,4-b]pyridine]", "values": [{"measurement": "Inhibition (%)", "setting": "[1]; 10 mg/kg oral", "value": 8, "unit": "%"}, {"measurement": "Inhibition (%)", "setting": "[1]; 32 mg/kg oral", "value": 103, "unit": "%"}, {"measurement": "Inhibition (%)", "setting": "[1]; 100 mg/kg oral", "value": 121, "unit": "%"}, {"measurement": "IC50", "setting": "[2]; inducer ADP (2.5 μM), read-out: ID50 ADP", "value": 55, "unit": "µM"}, {"measurement": "IC50", "setting": "[2]; inducer collagen (2.5 μg/ml), read-out: ID50 Collagen", "value": 37, "unit": "µM"}]}
